Measurements taken from BindingDB's records for doi:10.1021/jm00076a015 (University of Pennsylvania, 1994).

Target: T1, Ribonucleoside-diphosphate reductase large subunit (Mus musculus, UniProt P07742)
T1 sequence (P07742 whole entry): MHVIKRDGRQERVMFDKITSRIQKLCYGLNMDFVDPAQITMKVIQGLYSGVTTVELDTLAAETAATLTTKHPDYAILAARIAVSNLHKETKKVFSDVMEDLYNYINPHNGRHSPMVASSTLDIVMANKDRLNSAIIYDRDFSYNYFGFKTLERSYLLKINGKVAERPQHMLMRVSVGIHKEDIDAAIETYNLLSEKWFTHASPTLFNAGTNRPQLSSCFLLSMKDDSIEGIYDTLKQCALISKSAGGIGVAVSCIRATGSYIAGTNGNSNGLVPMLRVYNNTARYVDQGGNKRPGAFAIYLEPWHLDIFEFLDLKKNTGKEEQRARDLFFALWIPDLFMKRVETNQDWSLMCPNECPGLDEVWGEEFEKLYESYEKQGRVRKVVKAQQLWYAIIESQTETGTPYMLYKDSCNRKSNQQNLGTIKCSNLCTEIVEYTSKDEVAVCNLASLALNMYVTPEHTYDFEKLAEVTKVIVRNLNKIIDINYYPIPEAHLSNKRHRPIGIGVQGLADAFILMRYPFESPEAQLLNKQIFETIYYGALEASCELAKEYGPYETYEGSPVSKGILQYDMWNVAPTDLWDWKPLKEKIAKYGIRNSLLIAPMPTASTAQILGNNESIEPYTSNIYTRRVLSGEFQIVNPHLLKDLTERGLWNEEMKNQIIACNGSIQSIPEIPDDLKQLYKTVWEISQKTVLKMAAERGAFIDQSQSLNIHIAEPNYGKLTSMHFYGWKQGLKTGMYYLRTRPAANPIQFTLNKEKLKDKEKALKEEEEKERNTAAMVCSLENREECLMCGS
Assay: ChEBML_195421
Description: Inhibitory activity of compound against mammalian ribonucleotide reductase; Range is 40-42

Substance: Ac-AGAFTFNEDF-OH
- IC50: 41 µM
